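All cell lines were grown in 96-well plates and treated with compound for 48 hours. The concentration for 50% growth inhibition is given as GI50. The concentration for full growth arrest is given as TGI.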
test system: HOP-62 NSCLC; assay: NCI-60 cell line screen, 48 h

Question: With `CC(=O)OCC1OC([S-])C(OC(C)=O)C(OC(C)=O)C1OC(C)=O.CC[PH+](CC)CC.CC[PH+](CC)CC.[Au].[Au]` (centres undefined) as the compound, how does the GI50 read?
Answer: 1.23 µM

Question: And the TGI?
Answer: 2.56 µM

Question: Which TGI does the source give for `Cc1cc(C)n(CCNCCn2nc(C)cc2C)n1` here?
Answer: > 100 µM

Question: For `COc1cc2c(cc1OCc1ccccc1)CNCC2`, which TGI is on record?
Answer: > 100 µM

Question: With `O=C(CN1CCCCC1)N1CCc2c([nH]c3ccccc23)C1c1cccnc1` (centres undefined) as the compound, how does the TGI read?
Answer: > 100 µM

Question: `CCCCCCCCCc1cc(=O)c2c(O)cccc2o1` was tested. Which TGI did it give?
Answer: > 100 µM

Question: `O=C(C[n+]1ccccc1)NNC(=O)/C(=C/c1ccc2c(c1)OCO2)NC(=O)c1ccccc1` was tested. Which TGI did it give?
Answer: > 100 µM

Question: For `O=S(O)CCCCSSCc1ccccc1CSSCCCCS(=O)O`, which TGI is on record?
Answer: > 100 µM

Question: Which TGI does the source give for `Clc1ccc(-c2c(C3=NCCN3)nnn2-c2ccc(Cl)cc2)cc1` here?
Answer: > 100 µM

Question: `CC(C)(C)N1CC2(CCCCC2)C1=O` was tested. Which TGI did it give?
Answer: > 100 µM

Question: With `O=C(CCC(=O)Nc1cccc(Cl)c1)CC(=O)c1ccc(Cl)cc1` as the compound, how does the TGI read?
Answer: > 100 µM

Question: How did the GI50 turn out when `O=C(CCCN1CC=C(n2c(=O)[nH]c3ccccc32)CC1)c1ccc(F)cc1` was run?
Answer: 57.6 µM

Question: What about the TGI of the same compound?
Answer: > 100 µM

Question: With `CC(=O)Oc1ccccc1C(=O)N=C1[Se]CCCN1C(=O)c1ccccc1OC(C)=O` as the compound, how does the GI50 read?
Answer: 1.61 µM

Question: And the TGI?
Answer: 3.01 µM

Question: How did the GI50 turn out when `CC(=O)c1c(CBr)n([O-])c2ccccc2[n+]1=O` was run?
Answer: 15.6 µM

Question: And the TGI?
Answer: 29.7 µM

Question: What does the source list for `COc1ccc(C2C(C#N)=C(N)OC3=C2COc2ccc(F)cc23)cc1OC` (centres undefined)?
Answer: GI50: 27.9 µM; TGI: > 100 µM

Question: For `CCN(CC)CC(C)(C)C(=O)/C=C/c1ccc(Cl)c(Cl)c1`, which GI50 is on record?
Answer: 1.75 µM

Question: What about the TGI of the same compound?
Answer: 3.29 µM

Question: With `NC1CCCC[C@H]1N.N[C@@H]1CCCC[C@@H]1N.O=C(P(=O)([O-])[O-])P(=O)([O-])[O-].[Pt+4].[Pt+4]` as the compound, how does the GI50 read?
Answer: > 100 µM

Question: What about the TGI of the same compound?
Answer: > 100 µM

Question: For `O=C(CSc1nnc(-c2ccccc2NC(=O)C(F)(F)F)c(=O)[nH]1)NC(=O)Nc1ccccc1`, which TGI is on record?
Answer: > 100 µM

Question: With `O=C1c2ccn(CCCCNC(CO)(CO)CO)c2C(=O)c2c1c(O)c1ccccc1c2O` as the compound, how does the GI50 read?
Answer: 3.82 µM

Question: And the TGI?
Answer: 8.77 µM

Question: How did the TGI turn out when `CCOC(=O)c1[nH]c(COC(C)=O)c(CCCOC(C)=O)c1CCCOC(C)=O` was run?
Answer: > 100 µM

Question: Which GI50 does the source give for `CCN1C(=O)N(CC)C2C1NC(=S)N2/N=C/C=C/c1cccs1` (centres undefined) here?
Answer: 0.414 µM

Question: And the TGI?
Answer: > 100 µM

Question: With `COc1ccc(C(=O)C(CO)Oc2ccccc2OC)cc1OC` (centres undefined) as the compound, how does the TGI read?
Answer: > 100 µM

test system: T-47D breast; assay: NCI-60 cell line screen, 48 h

Question: With `COc1ccccc1/C=C/c1cnccn1` as the compound, how does the TGI read?
Answer: > 10 µM

Question: Which GI50 does the source give for `CCCCCc1c(C)[nH]c(/C=C2\N=C(c3ccc[nH]3)C=C2CC)c1C` here?
Answer: 0.0187 µM

Question: And the TGI?
Answer: 0.149 µM

Question: `COC(COC(=O)N1CCN(C=O)CC1)C1=C(N2CC2)C(=O)C(C)=C(N2CC2)C1=O` (centres undefined) was tested. Which TGI did it give?
Answer: 22.4 µM

Question: With `O=C(N/N=C\c1cc(Br)ccc1O)c1ccncc1` as the compound, how does the GI50 read?
Answer: 2.19 µM

Question: And the TGI?
Answer: 62.5 µM

Question: `OCCCCC#Cc1ccccc1C#Cc1cccc(O)c1` was tested. Which GI50 did it give?
Answer: 14.4 µM

Question: What about the TGI of the same compound?
Answer: 34.7 µM

Question: With `O=C(O)c1cccc(OCCO)c1` as the compound, how does the TGI read?
Answer: > 100 µM

Question: With `COc1cc2c(cc1OC)C13CCN4CC5=CCOC6CC(=O)N2C1C6C5CC43O` (centres undefined) as the compound, how does the TGI read?
Answer: > 100 µM

Question: With `O=C(CCCN1CC=C(n2c(=O)[nH]c3ccccc32)CC1)c1ccc(F)cc1` as the compound, how does the GI50 read?
Answer: 19.7 µM

Question: And the TGI?
Answer: 73.6 µM

Question: `CC(=O)Oc1ccccc1C(=O)N=C1[Se]CCCN1C(=O)c1ccccc1OC(C)=O` was tested. Which GI50 did it give?
Answer: 3.44 µM

Question: What about the TGI of the same compound?
Answer: 13.5 µM

Question: What does the source list for `CC(=O)c1c(CBr)n([O-])c2ccccc2[n+]1=O`?
Answer: GI50: 2.87 µM; TGI: 11.4 µM

Question: How did the GI50 turn out when `CCN(CC)CC(C)(C)C(=O)/C=C/c1ccc(Cl)c(Cl)c1` was run?
Answer: 1.52 µM

Question: And the TGI?
Answer: 4.03 µM

Question: What does the source list for `O=C1c2ccn(CCCCNC(CO)(CO)CO)c2C(=O)c2c1c(O)c1ccccc1c2O`?
Answer: GI50: 2.76 µM; TGI: > 22.1 µM

Question: What does the source list for `CCN1C(=O)N(CC)C2C1NC(=S)N2/N=C/C=C/c1cccs1` (centres undefined)?
Answer: GI50: 0.428 µM; TGI: > 100 µM

Question: Which GI50 does the source give for `COc1ccc(-c2cc(-c3cccn3C)c(C#N)c(N)n2)cc1OC` here?
Answer: > 100 µM

Question: What about the TGI of the same compound?
Answer: > 100 µM

Reference: PubChem BioAssay (NCI)
